Measured values from the kinase profiling compilation of Christmann-Franck et al. (2016).
Several values for one entry are separate records, joined by “and”; a condition that tells them apart may be missing. Equal entries are not always repeated.

What was measured:
Experiment in all cases: Caliper, Mobility shift assay off-chip
AURKC (human) = AURKC (human) (UniProt Q9UQB9)
CAMK1D (human) = CAMK1D (human) (UniProt Q8IU85)
CDK4 (human) = CDK4 (human) (UniProt P11802)
CLK1 (human) = CLK1 (human) (UniProt P49759)
Sequence of CLK1 (human) (P49759 whole entry, looked up): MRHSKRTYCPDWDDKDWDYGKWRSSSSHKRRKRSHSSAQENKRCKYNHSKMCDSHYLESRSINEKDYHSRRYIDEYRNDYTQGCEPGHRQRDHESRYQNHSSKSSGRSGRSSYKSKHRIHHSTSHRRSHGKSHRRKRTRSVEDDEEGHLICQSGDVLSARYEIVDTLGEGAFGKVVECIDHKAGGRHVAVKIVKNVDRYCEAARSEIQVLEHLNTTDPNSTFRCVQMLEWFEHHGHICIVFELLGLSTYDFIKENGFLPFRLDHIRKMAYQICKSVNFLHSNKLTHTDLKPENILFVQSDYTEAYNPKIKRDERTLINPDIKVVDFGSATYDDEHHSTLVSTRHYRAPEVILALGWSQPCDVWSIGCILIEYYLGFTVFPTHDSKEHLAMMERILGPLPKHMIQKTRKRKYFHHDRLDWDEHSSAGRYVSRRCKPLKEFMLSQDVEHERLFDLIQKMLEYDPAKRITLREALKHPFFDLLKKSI

CSNK1D (human) = CSNK1D (human) (UniProt P48730)
Sequence of CSNK1D (human) (P48730 whole entry, looked up): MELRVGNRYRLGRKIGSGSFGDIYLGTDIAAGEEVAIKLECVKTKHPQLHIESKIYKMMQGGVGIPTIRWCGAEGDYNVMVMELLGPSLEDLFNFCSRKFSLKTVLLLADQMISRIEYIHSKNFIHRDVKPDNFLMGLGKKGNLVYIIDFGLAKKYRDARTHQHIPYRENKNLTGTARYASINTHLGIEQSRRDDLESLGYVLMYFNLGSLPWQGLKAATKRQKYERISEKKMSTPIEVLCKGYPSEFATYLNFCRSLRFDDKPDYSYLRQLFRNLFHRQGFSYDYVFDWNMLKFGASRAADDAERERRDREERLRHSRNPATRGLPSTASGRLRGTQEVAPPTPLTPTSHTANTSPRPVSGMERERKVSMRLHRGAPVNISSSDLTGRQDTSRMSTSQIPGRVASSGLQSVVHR

DYRK1A (human) = DYRK1A (human) (UniProt Q13627)
FLT3 (human) = FLT3 (human) (UniProt P36888); conditions: compound 0.02 µM
FLT4 (human) = FLT4 (human) (UniProt P35916)
FYN (human) = FYN (human) (UniProt P06241)
Sequence of FYN (human) (P06241 whole entry, looked up): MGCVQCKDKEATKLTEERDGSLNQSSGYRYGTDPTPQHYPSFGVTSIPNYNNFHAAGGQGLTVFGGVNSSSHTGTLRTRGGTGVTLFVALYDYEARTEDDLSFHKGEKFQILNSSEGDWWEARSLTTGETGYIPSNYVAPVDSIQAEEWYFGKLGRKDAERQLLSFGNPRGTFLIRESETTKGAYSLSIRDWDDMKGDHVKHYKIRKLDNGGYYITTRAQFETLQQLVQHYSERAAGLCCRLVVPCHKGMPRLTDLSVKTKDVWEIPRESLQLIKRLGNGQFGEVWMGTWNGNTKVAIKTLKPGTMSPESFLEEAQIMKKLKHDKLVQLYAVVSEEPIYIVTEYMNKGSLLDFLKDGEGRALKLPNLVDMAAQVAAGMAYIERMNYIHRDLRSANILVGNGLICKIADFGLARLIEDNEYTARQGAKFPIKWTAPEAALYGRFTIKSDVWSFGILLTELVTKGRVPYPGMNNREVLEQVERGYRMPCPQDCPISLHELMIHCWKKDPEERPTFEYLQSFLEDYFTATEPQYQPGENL

HIPK4 (human) = HIPK4 (human) (UniProt Q8NE63)
IKBKB (human) = IKBKB (human) (UniProt O14920)
Sequence of IKBKB (human) (O14920 whole entry, looked up): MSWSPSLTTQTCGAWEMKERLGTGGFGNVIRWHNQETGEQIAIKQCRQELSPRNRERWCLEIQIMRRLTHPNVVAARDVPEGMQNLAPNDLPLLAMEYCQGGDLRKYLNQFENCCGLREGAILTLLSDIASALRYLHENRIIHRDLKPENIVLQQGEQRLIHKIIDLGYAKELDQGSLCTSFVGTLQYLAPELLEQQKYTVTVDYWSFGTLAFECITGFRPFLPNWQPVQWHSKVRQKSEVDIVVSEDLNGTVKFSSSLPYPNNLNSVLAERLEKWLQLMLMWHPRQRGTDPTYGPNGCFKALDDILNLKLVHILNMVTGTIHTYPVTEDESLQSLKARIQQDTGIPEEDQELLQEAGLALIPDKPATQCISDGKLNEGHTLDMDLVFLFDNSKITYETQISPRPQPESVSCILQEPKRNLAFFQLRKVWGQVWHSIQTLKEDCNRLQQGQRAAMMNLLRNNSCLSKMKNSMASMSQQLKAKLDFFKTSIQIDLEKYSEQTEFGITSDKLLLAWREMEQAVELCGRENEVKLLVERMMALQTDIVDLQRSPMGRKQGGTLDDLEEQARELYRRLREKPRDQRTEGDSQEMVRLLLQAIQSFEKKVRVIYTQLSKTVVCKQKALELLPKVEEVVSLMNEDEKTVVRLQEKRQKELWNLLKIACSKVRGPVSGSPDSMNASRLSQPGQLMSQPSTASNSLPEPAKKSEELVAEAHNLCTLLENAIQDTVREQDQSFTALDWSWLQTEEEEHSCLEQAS

INSRR (human) = INSRR (human) (UniProt P14616)
LYN (human) = LYN (human) (UniProt P07948)
Sequence of LYN (human) (P07948 whole entry, looked up): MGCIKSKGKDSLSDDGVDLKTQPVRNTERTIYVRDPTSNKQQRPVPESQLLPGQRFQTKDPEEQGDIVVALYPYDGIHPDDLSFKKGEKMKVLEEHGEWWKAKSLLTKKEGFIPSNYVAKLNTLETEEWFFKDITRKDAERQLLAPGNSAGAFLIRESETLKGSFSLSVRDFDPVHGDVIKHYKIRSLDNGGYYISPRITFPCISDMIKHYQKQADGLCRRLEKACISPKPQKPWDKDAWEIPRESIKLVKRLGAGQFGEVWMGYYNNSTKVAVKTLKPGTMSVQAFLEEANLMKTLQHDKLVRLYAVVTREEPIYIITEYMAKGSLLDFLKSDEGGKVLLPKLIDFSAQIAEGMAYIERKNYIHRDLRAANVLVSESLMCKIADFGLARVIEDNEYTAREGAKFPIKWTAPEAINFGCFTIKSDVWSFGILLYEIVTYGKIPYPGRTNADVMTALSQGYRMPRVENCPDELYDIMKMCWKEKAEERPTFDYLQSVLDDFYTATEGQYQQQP

MAPK11 (human) = MAPK11 (human) (UniProt Q15759)
MAPK3 (human) = MAPK3 (human) (UniProt P27361)
Sequence of MAPK3 (human) (P27361 whole entry, looked up): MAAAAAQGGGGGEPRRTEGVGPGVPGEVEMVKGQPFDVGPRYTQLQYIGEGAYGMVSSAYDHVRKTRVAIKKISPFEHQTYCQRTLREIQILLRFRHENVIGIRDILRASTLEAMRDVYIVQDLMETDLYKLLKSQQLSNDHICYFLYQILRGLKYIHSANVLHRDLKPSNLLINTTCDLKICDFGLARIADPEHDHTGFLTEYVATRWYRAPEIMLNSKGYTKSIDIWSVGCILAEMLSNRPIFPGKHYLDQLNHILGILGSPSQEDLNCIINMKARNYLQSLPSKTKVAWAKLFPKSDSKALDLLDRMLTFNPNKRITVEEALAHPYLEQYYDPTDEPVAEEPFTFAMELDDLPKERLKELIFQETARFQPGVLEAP

MYLK2 (human) = MYLK2 (human) (UniProt Q9H1R3)
NEK4 (human) = NEK4 (human) (UniProt P51957)
NEK7 (human) = NEK7 (human) (UniProt Q8TDX7)
Sequence of NEK7 (human) (Q8TDX7 whole entry, looked up): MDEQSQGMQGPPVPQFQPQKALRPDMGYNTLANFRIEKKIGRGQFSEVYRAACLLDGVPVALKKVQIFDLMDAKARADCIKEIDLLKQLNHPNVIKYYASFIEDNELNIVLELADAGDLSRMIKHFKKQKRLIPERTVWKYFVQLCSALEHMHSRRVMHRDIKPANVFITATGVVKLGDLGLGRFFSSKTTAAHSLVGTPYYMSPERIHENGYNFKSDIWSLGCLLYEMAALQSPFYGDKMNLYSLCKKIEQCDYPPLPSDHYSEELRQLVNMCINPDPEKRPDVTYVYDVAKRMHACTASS

NUAK1 (human) = NUAK1 (human) (UniProt O60285)
PAK1 (human) = PAK1 (human) (UniProt Q13153)
PAK6 (human) = PAK6 (human) (UniProt Q9NQU5)
PLK3 (human) = PLK3 (human) (UniProt Q9H4B4)
PRKAA1 (human) = PRKAA1 (human) (UniProt Q13131)
PRKCA (human) = PRKCA (human) (UniProt P17252)
PRKCI (human) = PRKCI (human) (UniProt P41743)
PRKG2 (human) = PRKG2 (human) (UniProt Q13237)
Sequence of PRKG2 (human) (Q13237 whole entry, looked up): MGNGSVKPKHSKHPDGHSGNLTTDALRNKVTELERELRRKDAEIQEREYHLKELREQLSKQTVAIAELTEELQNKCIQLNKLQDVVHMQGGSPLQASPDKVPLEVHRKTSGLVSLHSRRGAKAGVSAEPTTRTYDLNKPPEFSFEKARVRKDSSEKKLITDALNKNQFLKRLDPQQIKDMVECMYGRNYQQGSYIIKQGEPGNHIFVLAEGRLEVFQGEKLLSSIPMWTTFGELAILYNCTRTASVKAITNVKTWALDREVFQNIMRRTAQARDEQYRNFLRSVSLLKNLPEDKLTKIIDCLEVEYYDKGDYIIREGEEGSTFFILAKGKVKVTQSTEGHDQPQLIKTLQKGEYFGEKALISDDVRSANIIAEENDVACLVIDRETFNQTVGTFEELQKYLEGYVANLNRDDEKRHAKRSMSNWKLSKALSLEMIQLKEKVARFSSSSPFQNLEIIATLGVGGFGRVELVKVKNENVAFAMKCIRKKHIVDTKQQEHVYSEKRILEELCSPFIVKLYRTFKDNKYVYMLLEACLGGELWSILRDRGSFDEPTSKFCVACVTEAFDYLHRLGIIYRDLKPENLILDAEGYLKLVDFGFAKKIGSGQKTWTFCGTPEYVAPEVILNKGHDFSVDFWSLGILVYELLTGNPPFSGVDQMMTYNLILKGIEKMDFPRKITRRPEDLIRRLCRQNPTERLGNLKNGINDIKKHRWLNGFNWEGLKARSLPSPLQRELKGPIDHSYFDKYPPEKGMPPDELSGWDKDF

PRKX (human) = PRKX (human) (UniProt P51817)
Sequence of PRKX (human) (P51817 whole entry, looked up): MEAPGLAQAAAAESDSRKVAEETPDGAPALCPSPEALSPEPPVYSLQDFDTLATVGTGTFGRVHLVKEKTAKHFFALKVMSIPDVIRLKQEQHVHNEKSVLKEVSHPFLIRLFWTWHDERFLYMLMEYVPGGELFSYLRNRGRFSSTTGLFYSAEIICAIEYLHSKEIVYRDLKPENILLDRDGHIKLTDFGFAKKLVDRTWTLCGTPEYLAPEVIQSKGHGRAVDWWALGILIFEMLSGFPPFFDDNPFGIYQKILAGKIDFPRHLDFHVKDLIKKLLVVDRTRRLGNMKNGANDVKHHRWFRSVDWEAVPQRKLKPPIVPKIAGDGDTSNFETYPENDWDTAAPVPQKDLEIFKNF

PTK6 (human) = PTK6 (human) (UniProt Q13882)
Sequence of PTK6 (human) (Q13882 whole entry, looked up): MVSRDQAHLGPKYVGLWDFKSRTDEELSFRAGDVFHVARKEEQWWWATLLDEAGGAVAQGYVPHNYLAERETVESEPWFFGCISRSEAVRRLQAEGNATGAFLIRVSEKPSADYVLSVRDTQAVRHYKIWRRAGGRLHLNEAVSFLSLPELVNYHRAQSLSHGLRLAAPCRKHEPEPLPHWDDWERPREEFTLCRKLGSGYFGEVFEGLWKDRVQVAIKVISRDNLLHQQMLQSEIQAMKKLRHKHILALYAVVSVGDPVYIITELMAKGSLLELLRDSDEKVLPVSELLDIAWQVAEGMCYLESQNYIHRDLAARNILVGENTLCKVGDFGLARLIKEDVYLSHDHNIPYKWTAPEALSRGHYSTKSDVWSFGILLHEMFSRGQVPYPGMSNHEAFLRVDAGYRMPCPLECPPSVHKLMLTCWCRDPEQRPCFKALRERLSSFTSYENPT

SGK2 (human) = SGK2 (human) (UniProt Q9HBY8)
SIK1 (human) = SIK1 (human) (UniProt P57059)
TSSK2 (human) = TSSK2 (human) (UniProt Q96PF2)
TYK2 JH1 JH2 (human) = TYK2 JH1 JH2 (human) (UniProt P29597)

CNC(=O)c1ccccc1Sc1ccc2c(/C=C/c3ccccn3)n[nH]c2c1
inhibition (AURKC (human); compound 0.001 µM): -2.1%
inhibition (AURKC (human); compound 0.02 µM): 42.3%
inhibition (CAMK1D (human); compound 0.001 µM): -0.4%
inhibition (CAMK1D (human); compound 0.02 µM): -0.8%
inhibition (CDK4 (human); compound 0.001 µM): -2.2%
inhibition (CDK4 (human); compound 0.02 µM): 2.9%
inhibition (CLK1 (human); compound 0.001 µM): 6.6%
inhibition (CLK1 (human); compound 0.02 µM): -7.5%
inhibition (CSNK1D (human); compound 0.001 µM): -5.3% and -6.3%
inhibition (CSNK1D (human); compound 0.02 µM): -5.2% and -5.3%
inhibition (DYRK1A (human); compound 0.001 µM): 8%
inhibition (DYRK1A (human); compound 0.02 µM): -5.5%
inhibition (FLT3 (human)): 14.8%
inhibition (FLT4 (human); compound 0.001 µM): 21.2%
inhibition (FLT4 (human); compound 0.02 µM): 86.7%
inhibition (FYN (human); compound 0.001 µM): 7.3%
inhibition (FYN (human); compound 0.02 µM): 6.1%
inhibition (HIPK4 (human); compound 0.001 µM): -3.1%
inhibition (HIPK4 (human); compound 0.02 µM): 1.9%
inhibition (IKBKB (human); compound 0.001 µM): 5.5%
inhibition (IKBKB (human); compound 0.02 µM): 3.1%
inhibition (INSRR (human); compound 0.001 µM): -5.2%
inhibition (INSRR (human); compound 0.02 µM): -8.3%
inhibition (LYN (human); compound 0.001 µM): -2.2% and 4.1%
inhibition (LYN (human); compound 0.02 µM): 16% and 9.7%
inhibition (MAPK11 (human); compound 0.001 µM): -2.8%
inhibition (MAPK11 (human); compound 0.02 µM): -3.8%
inhibition (MAPK3 (human); compound 0.001 µM): -4.1%
inhibition (MAPK3 (human); compound 0.02 µM): -6.1%
inhibition (MYLK2 (human); compound 0.001 µM): -4.8%
inhibition (MYLK2 (human); compound 0.02 µM): -2.6%
inhibition (NEK4 (human); compound 0.001 µM): -5.5%
inhibition (NEK4 (human); compound 0.02 µM): -4.4%
inhibition (NEK7 (human); compound 0.001 µM): -3.9%
inhibition (NEK7 (human); compound 0.02 µM): -4.1%
inhibition (NUAK1 (human); compound 0.001 µM): 10.2%
inhibition (NUAK1 (human); compound 0.02 µM): -1.9%
inhibition (PAK1 (human); compound 0.001 µM): -1.5%
inhibition (PAK1 (human); compound 0.02 µM): -1.5%
inhibition (PAK6 (human); compound 0.001 µM): -7%
inhibition (PAK6 (human); compound 0.02 µM): 0.1%
inhibition (PLK3 (human); compound 0.001 µM): 3.7%
inhibition (PLK3 (human); compound 0.02 µM): -1.3%
inhibition (PRKAA1 (human); compound 0.001 µM): 7.1%
inhibition (PRKAA1 (human); compound 0.02 µM): 10.1%
inhibition (PRKCA (human); compound 0.001 µM): 15.9%
inhibition (PRKCA (human); compound 0.02 µM): 0.7%
inhibition (PRKCI (human); compound 0.001 µM): 3%
inhibition (PRKCI (human); compound 0.02 µM): 3.9%
inhibition (PRKG2 (human); compound 0.001 µM): -4.8%
inhibition (PRKG2 (human); compound 0.02 µM): -6%
inhibition (PRKX (human); compound 0.001 µM): 0.1%
inhibition (PRKX (human); compound 0.02 µM): -1.7%
inhibition (PTK6 (human); compound 0.001 µM): -6%
inhibition (PTK6 (human); compound 0.02 µM): -4.8%
inhibition (SGK2 (human); compound 0.001 µM): -1.7%
inhibition (SGK2 (human); compound 0.02 µM): 4.4%
inhibition (SIK1 (human); compound 0.001 µM): -5.3%
inhibition (SIK1 (human); compound 0.02 µM): -4.6%
inhibition (TSSK2 (human); compound 0.001 µM): -5.1%
inhibition (TSSK2 (human); compound 0.02 µM): -5.4%
inhibition (TYK2 JH1 JH2 (human); compound 0.001 µM): 3.7%
inhibition (TYK2 JH1 JH2 (human); compound 0.02 µM): 1.6%
